Read-outs that look alike come from different tables or passages of the source.

Results on four compounds are retold here after paper PMC8746574 (Molecules, 2022).

Data set [1] has as its system HIV-1 pseudotyped viruses. In words: Inhibitory activity against HIV-1 pseudoviruses in TZM-bl cells (summary statements). The conditions noted are these: neutralizing assays, SF162.LS, QH0692, 16RU28. In kind it is cell-based. How it is done:
To evaluate the inhibitory activities of the synthesized compounds, HIV-1 pseudotyped viruses SF162.LS and […] subtype B (which are included in the international reference panel), and pseudotyped viruses of the recombinant form CRF63_02A—16RU28 HIV-1 were used. Genetic variant CRF63_02A is currently the dominant type in Siberia and is rapidly spreading in the rest of the Russian Federation.
The anti-HIV-1 activity of the tested compounds was performed using the TZM-bl assay, carried out in 96-well culture plates, as described previously. Briefly, serial 2-fold dilutions of the tested compounds were prepared in DMEM growth medium, 200 TCID50 pseudovirus were added to each well and incubated for 1 h at 37 °C under 5% CO2. Trypsinized TZM-bl cell suspension was then added (100 μL of 2 × 10^5 cells/mL) and plates were further incubated at 37 °C under 5% CO2. After 48 h, the luminescence signal was recorded using the luciferase assay system (Promega). The percent inhibition for each compound was calculated as the ratio between the relative luminescence unit (RLU) values of the test wells (sample + pseudovirus + cells) and the virus control (pseudovirus + cells). Samples were tested in triplicates, and the experiment was repeated twice.

Data set [2] can be described thus: MTT cytotoxicity assay in TZM-bl cells. In kind it is cell-based. The conditions noted are these: human; TZM-bl cells, MTT test, 72 h incubation. How it is done:
(§1) The cytotoxicity of the obtained compounds was assessed in TZM-bl cells using the MTT test. The preparations were diluted with DMEM medium so that their starting concentration was 1000 μM and the final volume of DMSO was no more than 1%. Additionally, we compared the cytotoxicity of DMEM and medium with 1% DMSO in TZM-bl cells and found no significant differences in cell survival. […] A range of non-toxic concentrations was determined for each compound and used in subsequent experiments on their antiviral activity.
(§2) TZM-bl cells were seeded into 96-well culture plates (100 μL of cell suspension or 10^4 p cells per well) and placed in a CO2 incubator. The test compounds were dissolved in DMSO at a concentration of 100 mM. After 24 h of incubation, various concentrations of the test compounds (1000, 500, 250, 125, 62.5, 31.25, and 15.6 μM) were added by titration to the TZM-bl cell culture, in triplicates. DMSO was added to the control wells at a concentration of no more than 1%. The plates with the introduced drugs were incubated in a CO2 incubator at 37 °C under 5% CO2. After 72 h of incubation, 20 μL of MTT working solution (5 mg/mL) was added to each well and the plates were again incubated under the same conditions. After 2 h, the plates were removed from the CO2 incubator, and the medium in each well was replaced with DMSO solution (50 μL per well). The plates were shaken gently to dissolve the formazan crystals. The optical density of each well was determined at 570 nm using a Varioscan LUX plate reader (Thermo scientific). The survival rate of TZM-bl cells in the presence of the tested compounds was calculated using the formula: (OD of experimental wells—OD of medium)/(OD of control wells—OD of medium) × 100%, where OD is optical density.
On the technique in general: Tetrazolium dyes change colour on reduction, which living cells bring about.

The test system of the next data set is TZM-bl cells. In words: MTT cytotoxicity assay in TZM-bl cells. In kind it is cell-based. The conditions noted are these: MTT test. The method, then:
as §1, §2

Data set [3] relates to SARS-CoV-2 (three strains). In words: Antiviral activity against three strains of SARS-CoV-2 on Vero E6 cells (summary statements).
A further data set in a line: in vitro. The conditions noted are these: African green monkey.
Data set [4] concerns SARS-CoV-2 hCoV-19/Australia/VIC01/2020 (lineage B). In words: Reduction of cytopathic effect on Vero E6 cells, MTT, strain hCoV-19/Australia/VIC01/2020. In kind it is cell-based. For orientation: Protection from cytopathic effect is a common read-out in antiviral testing.
Data set [5] has as its system HIV-1 pseudotyped virus 16RU28 (recombinant form CRF63_02A). The data set is described as follows: TZM-bl neutralization assay with HIV-1 env-pseudovirus 16RU28. The following applies: read-out: IC50 16RU28; HIV-1 env-pseudovirus 16RU28 (CRF63_02A), TZM-bl cells, luciferase after 48 h. It is filed as cell-based.
The subject of data set [6] is HIV-1 pseudotyped virus OH0692 (subtype B). The data set is described as follows: TZM-bl neutralization assay with HIV-1 env-pseudovirus OH0692. It is filed as cell-based. The conditions noted are these: read-out: IC50 OH0692; HIV-1 env-pseudovirus OH0692, TZM-bl cells, luciferase after 48 h.
Data set [7] deals with HIV-1 pseudotyped virus SF162.LS (subtype B). The data set is described as follows: TZM-bl neutralization assay with HIV-1 env-pseudovirus SF162.LS. In kind it is cell-based. The conditions noted are these: read-out: IC50 SF162.LS, TZM-bl cells, luciferase after 48 h.

For the compound `CC1(C)[C@@H](O[C@H]2O[C@H](C(=O)O)[C@@H](O)[C@H](O)[C@H]2O[C@@H]2O[C@H](C(=O)O)[C@@H](O)[C@H](O)[C@H]2O)CC[C@]2(C)[C@H]3C(=O)C=C4[C@@H]5C[C@@](C)(C(=O)O)CC[C@]5(C)CC[C@@]4(C)[C@]3(C)CC[C@@H]12` [Glycyrrhizin], the “inhibitory activity against HIV-1 pseudotyped viruses (in words)” value in data set [1] was “did not exhibit any inhibitory activity”. In [2], this compound registered a CC50 at 72 h of more than 1000 µM. For the same compound, the “toxicity against the TZM-bl cell line (in words)” value in the data set with TZM-bl cells is given as “negligible toxicity”. The “antiviral activity against the three coronavirus strains (in words)” value in data set [3] is given as “no antiviral activity”. The “cytotoxicity on Vero cells (in words)” value in the data set on Vero E6 cells is recorded as “no cytotoxicity”. This compound also returned a CC50 in the data set “in vitro” of more than 1000 µM.

Take `CC1(C)C2CC[C@]3(C)C(C(=O)C=C4[C@@H]5C[C@@](C)(C(=O)O)CC[C@]5(C)CC[C@]43C)[C@@]2(C)CC[C@@H]1OC(=O)c1cccnc1` (stereo partly shown) [Nic-GA, glycyrrhetinic acid nicotinate]: the “inhibitory activity against HIV-1 pseudotyped viruses (in words)” value in [1] is reported as “lack of inhibition”. This compound also yielded a CC50 at 72 h in [2] of less than 7.8 µM. Moreover, the “toxicity against the TZM-bl cell line (in words)” value in the data set with TZM-bl cells is given as “some cytotoxic activity”. In data set [3], the “antiviral activity against the three coronavirus strains (in words)” value is “did not exhibit any antiviral activity”. For the same compound, the “cytotoxicity on Vero cells (in words)” value with Vero E6 cells is “less toxic to Vero cells than to Tzm-bl cells”. In the data set “in vitro”, the CC50 came to 101 µM.

Consider `CCC(CC)COC(=O)[C@H](C)N[P@](=O)(OC[C@H]1O[C@@](C#N)(c2ccc3c(N)ncnn23)[C@H](O)[C@@H]1O)Oc1ccccc1` [Remdesivir], for which, in the data set on Vero E6 cells (SOFTmax PRO 4.0, primary data, plate with strain B), the “parameter C of 4-parameter fit, toxity curve” value is 428,695 µg/ml. Moreover, the IC50 in data set [4] (Severe acute respiratory syndrome coronavirus 2, Vero C1008, 96 h, Vero E6 cells, 100 TCD50 per well, 4 days, MTT, lineage B, read-out: IC50 hCoV-19/Aust/VIC01/2020) was 3.3 ± 0.12 µM; in data set [4] (Vero C1008, SARS-CoV 2 (B), SOFTmax PRO 4.0, primary data, read-out: parameter C of 4-parameter fit, activity curve), 2020 µg/mL. Moreover, in the data set “in vitro” (Vero E6 cells), the CC50 at 4 days amounted to 711 ± 21.2 µM.

As for Maraviroc [MVC], the IC50 was found to be 1.6 nM in data set [5], 2 nM in data set [6] and 2 nM in [7].
